Assay results published in patent US20230286969A1, “AROMATIC SPIRO RING AMIDE DERIVATIVES FOR THE TREATMENT AND PROPHYLAXIS OF HEPATITIS B VIRUS INFECTION” (Hoffmann-La Roche Inc., priority 2020, published 2023).
Where two headings read alike, the source gives them in different places.

How the values were obtained:
Format in all cases: cell-based
HBsAg = experiment: PHH HBV natural infection assay, HBsAg (alphalisa)
Method in brief: (§1)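 Primary human hepatocytes infected with HBV at 200 GE/cell plus 4% PEG8000 for 24 h, then sandwich-cultured 72 h. Compounds were added in two refreshes 72 h apart. HBsAg and HBeAg in supernatant measured by AlphaLISA.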

HBeAg = experiment: PHH HBV natural infection assay, HBeAg (alphalisa)
Method in brief: as §1

[1] = system: primary human hepatocyte (PHH); experiment: PHH natural infection assay, cytotoxicity (Cell Counting Kit-8); details: HBV-infected primary human hepatocytes, CCK8, end of treatment
Method in brief: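 HBV-infected at 200 GE/cell with 4% PEG8000 for 24 h, then sandwich-cultured 72 h in 1% DMSO and 0.25 mg/mL matrix gel. Compound added twice at 72-h intervals; supernatant HBsAg and HBeAg read by AlphaLISA, HBV DNA by quantitative fluorescence PCR kit. Cytotoxicity by CCK-8.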

[2] = read-out: HBsAg IC50; HBV-infected primary human hepatocytes, supernatant, compound medium refreshed two times with 72-hour interval
[3] = read-out: HbeAg IC50; HBV-infected primary human hepatocytes, supernatant, compound medium refreshed two times with 72-hour interval

Structure (SMILES)	IC50 (HBsAg; [2]) [nM]	IC50 (HBeAg; [3]) [nM]	CC50 [1] [µM]	IC50 (HBsAg; HBV-infected primary human hepatocytes, supernatant, compound medium refreshed two times with 72-hour interval; read-out: HBsAg IC50) [nM]	IC50 (HBeAg; HBV-infected primary human hepatocytes, supernatant, compound medium refreshed two times with 72-hour interval; read-out: HbeAg IC50) [nM]
CS(=N)(=O)c1ccc(C(=O)NC2CC3(C2)CC(c2nc4cc(Cl)ccc4o2)C3)o1 (single isomer, unassigned) [Example 52-b, N-[6-(5-chloro-1,3-benzoxazol-2-yl)spiro[3.3]heptan-2-yl]-5-(methylsulfonimidoyl)furan-2-carboxamide]	939	898	> 100	–	–
N=S(=O)(c1ccc(C(=O)NC2CC3(C2)CC(c2nc4cc(Cl)ccc4o2)C3)o1)C1CC1 (single isomer, unassigned) [Example 53-b, N-[6-(5-chloro-1,3-benzoxazol-2-yl)spiro[3.3]heptan-2-yl]-5-(cyclopropylsulfonimidoyl)furan-2-carboxamide]	6830	4650	> 10	–	–
O=C(NC1CC2(C1)CC(c1nc3cc(Cl)ccc3o1)C2)c1ccc([S+]([O-])CC2CC2)o1 (single isomer, unassigned) [Example 19-c, N-[6-(5-chloro-1,3-benzoxazol-2-yl)spiro[3.3]heptan-2-yl]-5-(cyclopropylmethylsulfinyl)furan-2-carboxamide]	2420	1950	> 10	–	–
N=S(=O)(c1ccc(C(=O)NC2CC3(C2)CC(c2nc4cc(Cl)cnc4o2)C3)o1)C1CC1 (single isomer, unassigned) [Example 64-b, N-[6-(6-chlorooxazolo[5,4-b]pyridin-2-yl)spiro[3.3]heptan-2-yl]-5-(cyclopropylsulfonimidoyl)furan-2-carboxamide]	9460	9130	> 10	–	–
N=S(=O)(c1ccc(C(=O)NC2CC3(C2)CC(c2nc4cc(Cl)ccc4o2)C3)o1)C1CC1 (single isomer, unassigned) [Example 53-a, N-[6-(5-chloro-1,3-benzoxazol-2-yl)spiro[3.3]heptan-2-yl]-5-(cyclopropylsulfonimidoyl)furan-2-carboxamide]	1890	1270	> 10	–	–
N=S(=O)(c1ccc(C(=O)NC2CC3(C2)CC(c2nc4cc(Cl)ccc4o2)C3)o1)C1CC1 (single isomer, unassigned) [Example 53-d, N-[6-(5-chloro-1,3-benzoxazol-2-yl)spiro[3.3]heptan-2-yl]-5-(cyclopropylsulfonimidoyl)furan-2-carboxamide]	1120	1340	92.8	–	–
O=C(NC1CC2(C1)CC(c1nc3cc(Cl)ccc3o1)C2)c1ccc([S+]([O-])CC2CC2)o1 (single isomer, unassigned) [Example 19-d, N-[6-(5-chloro-1,3-benzoxazol-2-yl)spiro[3.3]heptan-2-yl]-5-(cyclopropylmethylsulfinyl)furan-2-carboxamide]	2860	2500	> 10	–	–
N=S(=O)(CC1CC1)c1ccc(C(=O)NC2CC3(C2)CC(c2nc4cc(Cl)ccc4o2)C3)o1 (single isomer, unassigned) [Example 54-a, N-[6-(5-chloro-1,3-benzoxazol-2-yl)spiro[3.3]heptan-2-yl]-5-(cyclopropylmethylsulfonimidoyl)furan-2-carboxamide]	6060	5700	> 10	–	–
O=C(NC1CC2(C1)CC(c1nc3cc(Cl)ccc3o1)C2)c1ccc([S+]([O-])CC2CC2)o1 (single isomer, unassigned) [Example 19-b, N-[6-(5-chloro-1,3-benzoxazol-2-yl)spiro[3.3]heptan-2-yl]-5-(cyclopropylmethylsulfinyl)furan-2-carboxamide]	71	53	> 10	–	–
NS(=O)(=O)c1ccc(C(=O)NC2CC3(C2)CC(c2nc4cc(Cl)ccc4o2)C3)o1 (single isomer, unassigned) [Example 29-b, N-[6-(5-chloro-1,3-benzoxazol-2-yl)spiro[3.3]heptan-2-yl]-5-sulfamoyl-furan-2-carboxamide]	1550	909	> 100	–	–
O=C(NC1CC2(C1)CC(c1nc3cc(Cl)cnc3o1)C2)c1ccc(S(=O)(=O)C2CC2)o1 (single isomer, unassigned) [Example 49-b, N-[6-(6-chlorooxazolo[5,4-b]pyridin-2-yl)spiro[3.3]heptan-2-yl]-5-cyclopropylsulfonyl-furan-2-carboxamide]	647	626	91.5	–	–
CCC(=O)NS(=O)(=O)c1ccc(C(=O)NC2CC3(C2)CC(c2nc4cc(Cl)ccc4o2)C3)o1 (stereo not drawn) [Example 68, (Sa)—N-[6-(5-chloro-1,3-benzoxazol-2-yl)spiro[3.3]heptan-2-yl]-5-(propanoylsulfamoyl)furan-2-carboxamide, or (Ra)—N-[6-(5-chloro-1,3-benzoxazol-2-yl)spiro[3.3]heptan-2-yl]-5-(propanoylsulfamoyl)furan-2-carboxamide]	–	–	> 100	626	371
CS(=N)(=O)c1ccc(C(=O)NC2CC3(C2)CC(c2nc4cc(Cl)ccc4o2)C3)o1 (single isomer, unassigned) [Example 52-c, N-[6-(5-chloro-1,3-benzoxazol-2-yl)spiro[3.3]heptan-2-yl]-5-(methylsulfonimidoyl)furan-2-carboxamide]	5040	3610	> 100	–	–
N=S(=O)(CC1CC1)c1ccc(C(=O)NC2CC3(C2)CC(c2nc4cc(Cl)ccc4o2)C3)o1 (single isomer, unassigned) [Example 54-d, N-[6-(5-chloro-1,3-benzoxazol-2-yl)spiro[3.3]heptan-2-yl]-5-(cyclopropylmethylsulfonimidoyl)furan-2-carboxamide]	703	694	> 10	–	–
N=S(=O)(CC1CC1)c1ccc(C(=O)NC2CC3(C2)CC(c2nc4cc(Cl)ccc4o2)C3)o1 (single isomer, unassigned) [Example 54-b, N-[6-(5-chloro-1,3-benzoxazol-2-yl)spiro[3.3]heptan-2-yl]-5-(cyclopropylmethylsulfonimidoyl)furan-2-carboxamide]	285	166	> 100	–	–
N=S(=O)(CC1CC1)c1ccc(C(=O)NC2CC3(C2)CC(c2nc4cc(Cl)ccc4o2)C3)o1 (single isomer, unassigned) [Example 54-c, N-[6-(5-chloro-1,3-benzoxazol-2-yl)spiro[3.3]heptan-2-yl]-5-(cyclopropylmethylsulfonimidoyl)furan-2-carboxamide]	5840	4590	> 10	–	–
